From patent publication US10493118B2, “Triterpenoid obtainable from hedera helix for treatment of neurodegenerative diseases” (Macau University of Science and Technology, priority 2016, dated 2019)

How the values were obtained:
[1] = tested on: EGFP-HTT 74 (mutant huntingtin); assay: Mutant huntingtin (EGFP-HTT 74) clearance in transfected PC-12 cells, Western blot; type: cell-based; conditions: EGFP-HTT 74 transfected PC-12 cells; hederagenin 40-80 μM, α-hederin 12-24 μM
Excerpt: Protein extraction and Western blots: Cells were harvested by RIPA lysis buffer (Cell Signaling Technologies, Beverly, Mass., USA), and with the final protein concentrations measured by using Bradford reagent (Bio-Rad, Hercules, Calif., USA). After electrophoresis for protein band separation, proteins were transferred to the nitrocellulose membrane which was blocked with 5% non-fat dried milk immediately after protein transfer. Corresponding primary antibodies, followed by the addition of HRP-conjugated secondary antibodies, were incubated with the protein membrane with constant shaking. […] Band intensities were quantified by using the software, ImageJ (ImageJ 1.46r; National Institutes of Health, Bethesda, Md., USA).
Cells were then treated with either hederagenin or α-hederin for a further 24 h to determine the protein level of mutant huntingtin by Western blot analysis using an antibody against GFP (Ravikumar, B. et al., Nat Genet 2004, 36:585-595). On the other hand, ATG7 wild-type and ATG7-deficient MEF cells transfected with EGFP-HTT 74 were analyzed for the formation of huntingtin inclusion after 24 h of hederagenin or α-hederin treatment. Percentages of cells with cytoplasmic GFP-huntingtin (GFP-HTT74) inclusion formation were counted by the number of cells with GFP inclusions over the total number of GFP-positive cells in the same field under fluorescent microscopic analysis. […]

[2] = tested on: α-synuclein oligomerization; assay: Bimolecular fluorescence complementation (BiFC) assay of α-synuclein oligomerization in HeLa cells; type: cell-based; conditions: for oligomerization of α-syn (GFP fluorescence intensity): transfected HeLa cells, hederagenin 40 or 80 μM, α-hederin 12 or 24 μM, 24 h
Description: Bimolecular Fluorescence Complementation (BiFC) Assay: Both (1) non-fluorescent GFP-N terminal (GFP-N-α-syn), or (2) non-fluorescent GFP-C terminal (GFP-C-α-syn) plasmids were generous gifts from Pamela J. McLean (Department of Neuroscience, Mayo Clinic Florida, Jacksonville, Fla., USA). HeLa cells transfected with both GFP-N-α-syn and GFP-C-α-syn plasmids were incubated at 37° C. for 4 h. Cells were then subjected to different concentration of hederagenin or α-hederin treatments for a further 24 h in a humidified incubator at […] (Outeiro, T. F. et al., PLoS One 2008, 3:e1867). Green fluorescent signal which indicates the reconstitution of complete GFP proteins was detected by flow analysis (BD FACSAria III, San Jose, Calif., USA).

[3] = tested on: GFP-LC3 transfected Atg7+/+ and Atg7−/− MEFs; assay: GFP-LC3 puncta formation in ATG7 wild-type and ATG7 deficient MEFs; type: cell-based, mouse; conditions: α-hederin 12 or 24 μM, hederagenin 40, 60 or 80 μM, 24 h
Description: Immunocytochemistry and fluorescence microscopy: In brief, GFP-LC3 puncta formation was analyzed as described previously (Wu, A. G. et al. Int J Mol Sci 2013, 14:22618-22641). Firstly, cells were plated on top of coverslips inside a 6-well culture dish. After compounds treatments, cells were fixed with 4% paraformaldehyde for 20 min. FluorSave™ mounting media (Calbiochem, San Diego, Calif., USA) was used to mount the coverslips with cells before subjected to fluorescence microscopic analysis. The number of GFP-positive cells, and cells with GFP-LC3 puncta formation was examined and counted under the Nikon ECLIPSE 80i microscope by using 40× of magnification. In order to standardize the quantitation, the percentage of cells with autophagy induction was defined by counting the number of cells with punctate GFP-LC3 fluorescence in GFP-positive cells. A minimum of 1000 GFP-positive cells from 3 randomly selected fields were scored.

p-p70S6K = assay: Western blot of p70S6K phosphorylation (downstream target of mTOR); type: cell-based; conditions: hederagenin 0-80 μM, α-hederin 0-24 μM, 24 h
Excerpt: (§1) Protein extraction and Western blots: Cells were harvested by RIPA lysis buffer (Cell Signaling Technologies, Beverly, Mass., USA), and with the final protein concentrations measured by using Bradford reagent (Bio-Rad, Hercules, Calif., USA). After electrophoresis for protein band separation, proteins were transferred to the nitrocellulose membrane which was blocked with 5% non-fat dried milk immediately after protein transfer. Corresponding primary antibodies, followed by the addition of HRP-conjugated secondary antibodies, were incubated with the protein membrane with constant shaking. Visualization of protein band pattern was performed by using the ECL Western Blotting Detection Reagents (Invitrogen, Paisley, Scotland). Band intensities were quantified by using the software, ImageJ (ImageJ 1.46r; National Institutes of Health, Bethesda, Md., USA).

LC3-II = assay: Western blot of LC3-II in ATG7+/+ and ATG7−/− MEFs; type: cell-based, mouse; conditions: 24 h
Excerpt: as §1

[4] = UHPLC/MS/MS measurement of hederagenin and α-hederin level in mice brain tissues; type: in vivo
Description: Whole mice brains were collected and weighted after sacrificed. Each brain tissue was put into 500 μl of NaCl solution and ultra-sonicated for 40 s to give the whole tissue homogenate. Each tube of homogenate was set to a final volume of 800 μl. […] The supernatant was collected and remaining precipitate was re-extracted with 200 μl of methanol. The collected supernatant was then combined and dried by using dry nitrogen blowing instrument. The residue was reconstituted with 200 μl of 30% acetonitrile, and then 10 μl of the aliquot was injected into the LC-MS/MS system (Su, F. L. et al., Chromatographia 2009, 69:207-213). […] The measurement of dopamine (DA), hederagenin and α-hederin level in mice brain tissues: Internal standard (IS, DHBA), DA, hederagenin and α-hederin level in the mouse brain, were quantified using UHPLC/MS/MS system which includes Agilent 1290 Infinity UHPLC, and Agilent 6460 Triple Quadrupole, equipped with an electrospray ionization interface used to generate positive ions for the determination of DA; negative ion mode for the measurement of hederagenin and α-hederin in mouse brains. The compounds in plasma samples were analyzed by using the Agilent Zorbax Eclipse Plus C-18 column with a particle size of 1.8 μm (flow rate: 0.35 mL/min). […] Data were analyzed by using Agilent MassHunter Workstation software B.01.03. […]

SMILES | clearance of overexpressed huntingtin in PC-12 cells [1] | inhibition of α-syn oligomerization relative to α-hederin ([2]; BiFC assay, HeLa cells) | oligomerization of α-syn (GFP fluorescence intensity) [2] | GFP-LC3-II puncta formation in ATG7-wild type MEFs [3] | phosphorylation of p70S6K (p-p70S6K) | protein expression of LC3-II in ATG7+/+ MEFs (LC3-II) | level detected in the brain tissue ([4]; C57BL/6, mouse, in vivo, po, 80 mg/kg) [nM] | level detected in the brain tissue ([4]; mice with 80 mg/kg HH-EF′ treatment, oral) [nM]
CC1(C)CC[C@]2(C(=O)O)CC[C@]3(C)C(=CC[C@@H]4[C@@]5(C)CC[C@H](O)[C@@](C)(CO)[C@@H]5CC[C@]43C)[C@@H]2C1 [hederagenin] | facilitate the clearance of overexpressed huntingtin | more potent in the inhibition | inhibit the oligomerization of α-syn | significantly increase the GFP-LC3-II puncta formation | reduced phosphorylation of p70S6K | significant increased protein expression of LC3-II | 3.39 | 
C[C@@H]1O[C@@H](O[C@H]2[C@H](O[C@H]3CC[C@@]4(C)[C@@H](CC[C@]5(C)[C@@H]4CC=C4[C@@H]6CC(C)(C)CC[C@]6(C(=O)O)CC[C@]45C)[C@]3(C)CO)OC[C@H](O)[C@@H]2O)[C@H](O)[C@H](O)[C@H]1O [α-hederin] | facilitate the clearance of overexpressed huntingtin |  | inhibit the oligomerization of α-syn | significantly increase the GFP-LC3-II puncta formation | reduced phosphorylation of p70S6K | significant increased protein expression of LC3-II |  | 2.98
